In one data set the test system is CT26 tumors. Nature of the data set: Immunofluorescence of P-STAT3 and cleaved caspase-3 in CT26 tumor slides (Balb/c). The class given is in vivo, mouse. The text has this: FIG. 7A: Immunofluorescence assay of P-STAT3 (Phosphorylated STAT3) in CT26 cells in Balb/c mice tumors treated with VEH (non-relevant compound which is DMSO) (column on the left) or with compound 33 (column on the right). […] Statistical analysis has been performed by ANOVA (*=p=0.0019).
FIG. 7B: Immunofluorescence assay of cleaved caspase-3 (C3C) in CT26 cells in Balb/c mice tumors treated with VEH (column on the left) or with compound 33 (column on the right). […] (Ordinate: Caspase-3 cleaved relative fluorescence in percentage). Statistical analysis has been performed by ANOVA (***=p=0.0003)
Two different colorectal mouse models were used: a syngeneic model for which mouse colon cancer CT-26 cells were injected into Balb/c mice and a NOD/SCID model in which mice were implanted with human colorectal cancer HCT116 cells (FIG. 4 A-B). When the tumor reached a size of −2 mm, mice were treated intraperitoneally with the compound 33 at 5 mg/Kg (BALB/c n=11, NOD SCID n=6) or corn oil 5% DMSO (BALB/c n=10, NOD SCID n=6), every three days until the end of the experiment. The compound 33 was dissolved in DMSO, then diluted 20 times in corn oil (Sigma Aldrich-C8267) and sterilized by filtration with PTFE membrane Millex 0.2 μm (Millipore-SLFG025LS). Tumors were analyzed before reaching 2000 mm3. […]

Data set [1] has as its system DLBCL cell lines (HBL1, TMD8, U2932). As to the kind of experiment: Viability of B-cell lymphoma cell lines, combination with Ibrutinib. The note with it: compound 33 at suboptimal 10 μM, Ibrutinib 0.01-100 nM. The class given is cell-based, human. How it is done: FIG. 12: Viability of various B-cell lymphoma cell lines treated with a suboptimal concentration of compound 33 (i) alone or (ii) in combination with increasing concentrations of Ibrutinib.
Groups of bars, from the left to the right of FIG. 12: (i) HBL1 human diffuse large B-cell lymphoma cell line not treated with compound 33 and treated with and increasing concentrations of Ibrutinib, (ii) HBL1 human diffuse large B-cell lymphoma cell line treated with 10 μM of compound 33 and increasing concentrations of Ibrutinib, (iii) TMD8 human B cell lymphoma cell line not treated with compound 33 and treated with and increasing concentrations of Ibrutinib, (iv) TMD8 human B cell lymphoma cell line treated with 10 μM of compound 33 and increasing concentrations of Ibrutinib, (v) U2932 human diffuse large B-cell lymphoma cell line not treated with compound 33 and treated with and increasing concentrations of Ibrutinib, and (vi). U2932 human diffuse large B-cell lymphoma cell line treated with 10 μM of compound 33 and increasing concentrations of Ibrutinib.
In each group of bars, form the left to the right: (i) Control (0 nM), without treatment with Ibrutinib, (ii) Ibrutinib at 0.01 nM, (iii) Ibrutinib at 0.1 nM, (iv) Ibrutinib at 1 nM, (v) Ibrutinib at 10 nM, (vi) Ibrutinib at 100 nM.

Data set [2] deals with human colorectal cancer HCT116 cells. Nature of the data set: Tumor growth, HCT116 xenograft in NOD/SCID mice. The conditions noted are these: HCT116, 5 mg/Kg intraperitoneally every three days. Format: in vivo. How it is done: FIG. 6B: Tumor volume monitoring of HCT116 cells grown in NOD/SCID animals treated intraperitoneally either with a non-relevant compound which is DMSO (named VEH line with circle) or treated with the compound 33 (5 mg/kg—line with square) (Abscissa: Days from 0 to 62 in day; Ordinate: Tumor volume in mm^3 from 0 to 2500 (scale 500)).
Two different colorectal mouse models were used: a syngeneic model for which mouse colon cancer CT-26 cells were injected into Balb/c mice and a NOD/SCID model in which mice were implanted with human colorectal cancer HCT116 cells (FIG. 4 A-B). When the tumor reached a size of −2 mm, mice were treated intraperitoneally with the compound 33 at 5 mg/Kg (BALB/c n=11, NOD SCID n=6) or corn oil 5% DMSO (BALB/c n=10, NOD SCID n=6), every three days until the end of the experiment. The compound 33 was dissolved in DMSO, then diluted 20 times in corn oil (Sigma Aldrich-C8267) and sterilized by filtration with PTFE membrane Millex 0.2 μm (Millipore-SLFG025LS). Tumors were analyzed before reaching 2000 mm3. Treatment by compound 33 induces a decrease in tumor growth of 40% and 60% in the Balb/c and NOD mice, respectively (FIGS. 6A and 6B).

The subject of a further data set is TMD8 human DLBCL cells. As to the kind of experiment: TMD8 DLBCL xenograft in immunodeficient mice, tumor growth. The class given is in vivo. The conditions noted are these: 10 or 20 mg/kg intraperitoneally. Here is the method: FIG. 11A: Tumor volume monitoring of TMD8 human DLBCL cells grown in Immunodeficient mice treated intraperitoneally with the compound 52 (=inhibitor 52) at 10 or 20 mg/kg or with vehicle at the same frequency. (Abscissa: Days from 0 to 25 in day; Ordinate: Tumor volume in mm^3 from 0 to 4000 (scale 1000)).
FIG. 11B: Tumor weight monitoring of TMD8 human DLBCL cells grown in Immunodeficient mice treated intraperitoneally with the compound 52 (=inhibitor 52) at 10 or 20 mg/kg or with vehicle at the same frequency. (Abscissa: Treatments vehicle, 10 mg/kg or 20 mg/kg of compound 52; Ordinate: Tumor weight in g from 0 to 4 g (scale 1)).

Data set [3] can be described thus: Body and spleen weights of mice during treatment. The class given is in vivo. The note with it: immunodeficient mice, 10 or 20 mg/kg intraperitoneally. Here is the method: FIG. 11C: Body weight monitoring of Immunodeficient mice treated intraperitoneally with the compound 52 (=inhibitor 52) at 10 or 20 mg/kg or with vehicle at the same frequency. (Abscissa: Days from 0 to 20 in day; Ordinate: Body weight in g from 24 to 34 g (scale 2)).
FIG. 11D: Spleen weights monitoring of Immunodeficient mice treated intraperitoneally with the compound 52 (=inhibitor 52) at 10 or 20 mg/kg or with vehicle at the same frequency. (Abscissa: Treatments vehicle, 10 mg/kg or 20 mg/kg of compound 52; Ordinate: Spleen weight in mg from 20 to 100 mg (scale 20)).

Regarding `COc1ccc(-c2ncc(-c3ncc(-c4cc(OC)c(OC)c(OC)c4)cc3/C=C/c3ccccc3)cc2C)cc1OC` [compound 33, (E)-6′-(3,4-Dimethoxyphenyl)-5′-methyl-3-styryl-5-(3,4,5-trimethoxyphenyl)-2,3′-bipyridine], the “P-STAT3 in tumor slides (relative fluorescence)” value in the data set on CT26 tumors (CT26 tumors in Balb/c mice, control 100%) worked out at 50%. Besides, the “tumor cell apoptosis (cleaved caspase-3 staining)” value with CT26 tumors (CT26 tumors, Balb/c model) is given as “increase in tumor cell apoptosis”. In data set [1], the “effect in combination with Ibrutinib on viability” value is recorded as “synergistic effect”. Besides, in data set [2], the “decrease in tumor growth” value is reported as 60%.
`COc1cc(-c2cnc(-c3cnc(-c4cc(OC)c(OC)c(OC)c4)c(C)c3)c(/C=C/c3ccccc3)c2)cc(OC)c1OC` [compound 52, (E)-5′-Methyl-3-styryl-5,6′-bis(3,4,5-trimethoxyphenyl)-2,3′-bipyridine]: in the data set on TMD8 human DLBCL cells, the “tumor growth of xenografted DLBCL cell line” value is “reduced the tumor growth”. Further, the “toxicity (body and spleen weights)” value in data set [3] is “no toxicity”.

For the origin of these results see US12070452B2, “Compounds targeting HSP110 protein for cancer treatment” (INSERM (Institut National de la Santé et de la Recherche …, priority 2018, dated 2024).
